Reference: US20230348462A1, “IMIDAZO[4,5-C]QUINOLINE COMPOUNDS AND THEIR USE AS ATM KINASE INHIBITORS” (Deutsches Krebsforschungszentrum, priority 2020, published 2023)

Experiments:
human ATM = human ATM (Homo sapiens (Human), UniProt Q13315); assay: Enzymatic ATM assay (RBC FRET enzyme assay); format: biochemical; conditions: substrate p53, 5-point dilution starting at 10 μM
Method: The inhibitory activity on the isolated ATM kinase was determined by a commercial supplier (Reaction Biology Corp., PA, US) using an activity based FRET assay. Compounds were therefore first pre-incubated with human ATM before substrate (p53) and ATP were added to initiate the phosphorylation reaction. After a given time, the kinase reaction was stopped and the amount of phosphorylated substrate was quantified using standard FRET detection methods. […] Detailed assay conditions and parameters can be requested from the commercial supplier.

[1] = tested on: kras^G12D; mycOE; p53^−/− murine pancreatic cancer cells (KMP53); assay: KMP53 cell assay (XTT cell viability with Etoposide); format: cell-based; conditions: Mus musculus, 4 h pre-treatment, then 300 nM Etoposide, 46 h
Source text: (§1) A selection of compounds was screened in a cellular assay system in two different cancer cell lines. Therefore, the cells were challenged with a generally non-cytotoxic concentration of Etoposid to induce DNA double strand breaks and the activation of the ATM pathway. The cells were further treated with different concentrations of the final compounds and viability of the cells was quantified using a standard XTT cell viability protocol. The principle of this assay lies in the fact that only alive and thus metabolically active cells are able to catalyze the reduction of XTT ((2,3-bis-(2-methoxy-4-nitro-5-sulfophenyl)-2H-tetrazolium-5-carboxanilide) by NADH from mitochondria, into formazan. The formazan product can be then detected using an absorbance-based microplate reader. The absorbance intensity measured in each well correlates to cell viability.
(§2) In brief, kras^G12D; mycOE; p53^−/− murine pancreatic cancer cells (KMP53) and Panc-1 human pancreatic ductal carcinoma cells were seeded in 96-well plates and left to attach overnight. The following day, cells were treated with serial dilutions of compound or DMSO in triplicates. The cells were first pre-treated for 4 hours with inhibitor and then 300 nM of Etoposide was added to each well. Cells were then grown under normal conditions (37° C., 95% air, 5% CO2) for 46 h. Following the incubation period, XTT solution was added to the cells containing 1 mg/ml XTT and 25 μM phenazine methosulfate (PMS) diluted in full culture medium. Cells were incubated in normal conditions for two more hours. For the determination of cell viability, absorbance at 450 nm was measured for each well. Absorbance values were then normalized to DMSO control and expressed as percentages of viability. Using software GraphPad Prism, the values were fitted in a nonlinear response curve and the IC50 values were calculated.

[2] = tested on: Panc-1 human pancreatic ductal carcinoma cells; assay: Panc1 cell assay (XTT cell viability with Etoposide); format: cell-based; conditions: 4 h pre-treatment, then 300 nM Etoposide, 46 h
Source text: as §1, §2

Chain of human ATM (Q13315 whole entry): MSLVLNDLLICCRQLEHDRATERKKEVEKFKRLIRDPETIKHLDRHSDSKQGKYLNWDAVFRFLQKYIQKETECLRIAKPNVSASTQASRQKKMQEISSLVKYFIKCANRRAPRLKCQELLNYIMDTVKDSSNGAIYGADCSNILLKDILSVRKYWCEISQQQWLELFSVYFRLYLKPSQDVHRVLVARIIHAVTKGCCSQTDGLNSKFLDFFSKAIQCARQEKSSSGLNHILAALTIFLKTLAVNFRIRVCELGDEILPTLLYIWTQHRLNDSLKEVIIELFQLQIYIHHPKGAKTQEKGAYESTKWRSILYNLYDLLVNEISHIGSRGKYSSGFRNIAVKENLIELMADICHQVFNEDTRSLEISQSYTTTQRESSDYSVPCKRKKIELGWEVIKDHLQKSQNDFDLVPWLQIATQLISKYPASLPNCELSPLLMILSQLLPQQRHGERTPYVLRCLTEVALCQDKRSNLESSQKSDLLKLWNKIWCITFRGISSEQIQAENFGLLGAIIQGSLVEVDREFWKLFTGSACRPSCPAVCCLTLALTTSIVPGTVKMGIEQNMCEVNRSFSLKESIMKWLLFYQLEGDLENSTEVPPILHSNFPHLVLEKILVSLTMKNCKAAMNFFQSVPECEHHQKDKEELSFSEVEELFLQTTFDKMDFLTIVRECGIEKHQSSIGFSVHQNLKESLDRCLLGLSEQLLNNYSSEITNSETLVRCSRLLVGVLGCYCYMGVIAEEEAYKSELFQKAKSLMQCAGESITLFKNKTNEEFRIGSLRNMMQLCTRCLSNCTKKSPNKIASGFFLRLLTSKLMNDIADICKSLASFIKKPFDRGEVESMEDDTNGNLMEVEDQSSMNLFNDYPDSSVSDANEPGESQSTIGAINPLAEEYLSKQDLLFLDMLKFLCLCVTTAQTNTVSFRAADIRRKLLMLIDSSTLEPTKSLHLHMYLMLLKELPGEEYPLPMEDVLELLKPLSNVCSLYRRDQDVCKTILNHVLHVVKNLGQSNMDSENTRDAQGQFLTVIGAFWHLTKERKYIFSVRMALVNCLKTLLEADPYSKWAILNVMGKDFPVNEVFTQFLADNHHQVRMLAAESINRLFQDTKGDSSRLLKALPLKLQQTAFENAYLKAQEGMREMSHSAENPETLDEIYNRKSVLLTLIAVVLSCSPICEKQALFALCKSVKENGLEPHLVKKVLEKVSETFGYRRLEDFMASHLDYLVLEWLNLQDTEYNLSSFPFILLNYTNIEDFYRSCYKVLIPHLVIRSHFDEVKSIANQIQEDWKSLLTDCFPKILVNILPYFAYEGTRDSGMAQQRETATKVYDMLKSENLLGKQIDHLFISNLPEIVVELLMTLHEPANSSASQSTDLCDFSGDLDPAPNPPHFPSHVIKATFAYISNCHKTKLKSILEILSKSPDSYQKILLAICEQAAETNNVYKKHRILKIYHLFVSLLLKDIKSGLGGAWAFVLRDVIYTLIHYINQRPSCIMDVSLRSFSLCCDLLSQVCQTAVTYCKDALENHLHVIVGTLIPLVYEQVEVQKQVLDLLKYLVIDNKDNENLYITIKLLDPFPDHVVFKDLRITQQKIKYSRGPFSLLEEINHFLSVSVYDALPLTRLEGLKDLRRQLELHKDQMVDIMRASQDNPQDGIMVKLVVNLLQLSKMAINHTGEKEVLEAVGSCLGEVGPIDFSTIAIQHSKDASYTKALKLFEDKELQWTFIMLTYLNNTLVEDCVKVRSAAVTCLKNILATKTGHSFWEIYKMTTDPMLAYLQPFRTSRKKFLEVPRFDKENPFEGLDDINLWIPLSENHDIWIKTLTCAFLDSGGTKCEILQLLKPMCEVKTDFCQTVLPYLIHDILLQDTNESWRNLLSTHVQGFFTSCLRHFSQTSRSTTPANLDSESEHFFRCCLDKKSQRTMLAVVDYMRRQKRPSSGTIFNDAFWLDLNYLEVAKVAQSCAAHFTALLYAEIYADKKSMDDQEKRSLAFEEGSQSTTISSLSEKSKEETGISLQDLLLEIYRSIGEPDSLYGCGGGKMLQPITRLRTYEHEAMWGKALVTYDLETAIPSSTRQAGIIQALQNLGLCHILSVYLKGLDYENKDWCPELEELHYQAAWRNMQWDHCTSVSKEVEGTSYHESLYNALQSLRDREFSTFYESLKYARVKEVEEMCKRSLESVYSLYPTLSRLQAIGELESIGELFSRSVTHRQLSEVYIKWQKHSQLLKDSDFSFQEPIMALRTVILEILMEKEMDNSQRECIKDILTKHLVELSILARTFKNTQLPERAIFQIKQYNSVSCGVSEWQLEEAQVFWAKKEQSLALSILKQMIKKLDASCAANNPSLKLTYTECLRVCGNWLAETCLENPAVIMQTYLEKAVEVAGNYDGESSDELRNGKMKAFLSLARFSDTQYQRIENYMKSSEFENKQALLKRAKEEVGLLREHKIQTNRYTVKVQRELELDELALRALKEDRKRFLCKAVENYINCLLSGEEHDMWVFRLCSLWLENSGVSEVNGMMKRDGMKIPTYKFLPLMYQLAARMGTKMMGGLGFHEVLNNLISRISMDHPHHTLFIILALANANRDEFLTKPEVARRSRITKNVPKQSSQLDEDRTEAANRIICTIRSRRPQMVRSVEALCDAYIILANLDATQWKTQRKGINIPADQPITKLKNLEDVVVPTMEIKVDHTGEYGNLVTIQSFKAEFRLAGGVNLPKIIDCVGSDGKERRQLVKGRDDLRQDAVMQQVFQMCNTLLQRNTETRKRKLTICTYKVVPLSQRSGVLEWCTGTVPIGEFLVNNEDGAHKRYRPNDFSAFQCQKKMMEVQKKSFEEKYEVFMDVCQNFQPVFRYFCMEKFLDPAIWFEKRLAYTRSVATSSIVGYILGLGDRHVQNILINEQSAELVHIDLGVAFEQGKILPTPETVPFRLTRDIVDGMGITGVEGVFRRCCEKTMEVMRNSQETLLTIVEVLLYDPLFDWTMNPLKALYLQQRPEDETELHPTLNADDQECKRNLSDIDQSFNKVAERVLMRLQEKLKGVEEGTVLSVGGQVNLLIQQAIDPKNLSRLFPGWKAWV

Row | SMILES | IC50 (human ATM) | IC50 [1] | IC50 [2]
1 | COCCn1c(=O)n(C)c2cnc3ccc(-c4ccc(NC(=O)NC(C)CN(C)C)cc4)cc3c21 (racemic) [Ex. 52, (RS)-1-(1-(Dimethylamino)propan-2-yl)-3-(4-(1-(2-methoxyethyl)-3-methyl-2-oxo-2,3-dihydro-1H-imidazo[4,5-c]quinolin-8-yl)phenyl)urea] | < 1 nM | 5470 nM | –
2 | CN(C)CCCOc1ccc(-c2ccc3ncc4ncn(C5CCOCC5)c4c3c2)cn1 [Ex. 1, N,N-Dimethyl-3-((5-(1-(tetrahydro-2H-pyran-4-yl)-1H-imidazo[4,5-c]quinolin-8-yl)pyridin-2-yl)oxy)propan-1-amine] | 2.3 nM | 6900 nM | –
3 | Cc1nc2cnc3ccc(-c4ccc(OCCCN(C)C)nc4)cc3c2n1C1CCOCC1 [Ex. 2, N,N-Dimethyl-3-((5-(2-methyl-1-(tetrahydro-2H-pyran-4-yl)-1H-imidazo[4,5-c]quinolin-8-yl)pyridin-2-yl)oxy)propan-1-amine] | 2.9 nM | 8100 nM | –
4 | CN(C)CCCOc1ccc(-c2ccc3ncc4nc(-c5ccco5)n(C5CCOCC5)c4c3c2)cn1 [Ex. 3, 3-((5-(2-(Furan-2-yl)-1-(tetrahydro-2H-pyran-4-yl)-1H-imidazo[4,5-c]quinolin-8-yl)pyridin-2-yl)oxy)-N,N-dimethylpropan-1-amine] | < 1 nM | 7500 nM | –
5 | CN(C)CCCOc1ccc(-c2ccc3ncc4nc(-c5ccccc5)n(C5CCOCC5)c4c3c2)cn1 [Ex. 4, N,N-Dimethyl-3-((5-(2-phenyl-1-(tetrahydro-2H-pyran-4-yl)-1H-imidazo[4,5-c]quinolin-8-yl)pyridin-2-yl)oxy)propan-1-amine] | 3.7 nM | 2100 nM | –
6 | COCCn1cnc2cnc3ccc(-c4ccc(OCCCN(C)C)nc4)cc3c21 [Ex. 5, 3-((5-(1-(2-Methoxyethyl)-1H-imidazo[4,5-c]quinolin-8-yl)pyridin-2-yl)oxy)-N,N-dimethylpropan-1-amine] | 3.3 nM | 3400 nM | –
7 | COCCn1c(-c2ccco2)nc2cnc3ccc(-c4ccc(OCCCN(C)C)nc4)cc3c21 [Ex. 6, 3-((5-(2-(Furan-2-yl)-1-(2-methoxyethyl)-1H-imidazo[4,5-c]quinolin-8-yl)pyridin-2-yl)oxy)-N,N-dimethylpropan-1-amine dimesylate] | < 1 nM | 3420 nM | –
8 | CN1CCN(C(=O)Nc2ccc(-c3ccc4ncc5c(c4c3)n(C3CCOCC3)c(=O)n5C)cn2)CC1 [Ex. 8, 4-Methyl-N-(5-(3-methyl-2-oxo-1-(tetrahydro-2H-pyran-4-yl)-2,3-dihydro-1H-imidazo[4,5-c]quinolin-8-yl)pyridin-2-yl)piperazine-1-carboxamide] | 2 nM | 410 nM | –
9 | COCCn1c(=O)n(C)c2cnc3ccc(-c4ccc(OCCCN(C)C)nc4)cc3c21 [Ex. 9, 8-(6-(3-(Dimethylamino)propoxy)43uinolin-3-yl)-1-(2-methoxyethyl)-3-methyl-1,3-dihydro-2H-imidazo[4,5-c]43uinoline-2-one] | < 1 nM | 1580 nM | –
10 | CN(C)CCNC(=O)Nc1ccc(-c2ccc3ncc4c(c3c2)n(C2CCOCC2)c(=O)n4C)cc1 [Ex. 10, 1-(2-(Dimethylamino)ethyl)-3-(4-(3-methyl-2-oxo-1-(tetrahydro-2H-pyran-4-yl)-2,3-dihydro-1H-imidazo[4,5-c]quinolin-8-yl)phenyl)urea] | < 1 nM | 1450 nM | –
11 | COCCn1c(=O)n(C)c2cnc3ccc(-c4ccc(NC(=O)NCCN(C)C)cc4)cc3c21 [Ex. 11, 1-(2-(Dimethylamino)ethyl)-3-(4-(1-(2-methoxyethyl)-3-methyl-2-oxo-2,3-dihydro-1H-imidazo[4,5-c]quinolin-8-yl)phenyl)urea] | < 1 nM | 4000 nM | –
12 | COCCn1c(=O)n(C)c2cnc3ccc(-c4ccc(NC(=O)N5CCC(NC(=O)OC(C)(C)C)CC5)cc4)cc3c21 [Ex. 13, tert-Butyl (1-((4-(1-(2-methoxyethyl)-3-methyl-2-oxo-2,3-dihydro-1H-imidazo[4,5-c]quinolin-8-yl)phenyl)carbamoyl)piperidin-4-yl)carbamate] | 2.3 nM | – | –
13 | COCCn1c(=O)n(C)c2cnc3ccc(-c4ccc(NC(=O)NC5CCN(C(=O)OC(C)(C)C)CC5)cc4)cc3c21 [Ex. 15, tert-Butyl 4-(3-(4-(1-(2-methoxyethyl)-3-methyl-2-oxo-2,3-dihydro-1H-imidazo[4,5-c]quinolin-8-yl)phenyl)ureido)piperidine-1-carboxylate] | < 1 nM | – | –
14 | COCCn1c(=O)n(C)c2cnc3ccc(-c4ccc(NC(=O)NC5CCCN(C)C5)cc4)cc3c21 (stereo not shown) [Ex. 17, 1-(4-(1-(2-Methoxyethyl)-3-methyl-2-oxo-2,3-dihydro-1H-imidazo[4,5-c]quinolin-8-yl)phenyl)-3-(1-methylpiperidin-3-yl)urea] | < 1 nM | – | 4 nM
15 | COCCn1c(=O)n(C)c2cnc3ccc(-c4ccc(NC(=O)NC5CCN(C)CC5)cc4)cc3c21 [Ex. 18, 1-(4-(1-(2-Methoxyethyl)-3-methyl-2-oxo-2,3-dihydro-1H-imidazo[4,5-c]quinolin-8-yl)phenyl)-3-(1-methylpiperidin-4-yl)urea] | 4 nM | – | –
16 | COCCn1c(=O)n(C)c2cnc3ccc(-c4ccc(NC(=O)NC5CCN(C)C5)cc4)cc3c21 (stereo not shown) [Ex. 19, 1-(4-(1-(2-Methoxyethyl)-3-methyl-2-oxo-2,3-dihydro-1H-imidazo[4,5-c]quinolin-8-yl)phenyl)-3-(1-methylpyrrolidin-3-yl)urea] | < 1 nM | 9930 nM | 9 nM
17 | COCCn1c(=O)n(C)c2cnc3ccc(-c4ccc(NC(=O)N5CCN(C)CC5)cc4)cc3c21 [Ex. 20, N-(4-(1-(2-methoxyethyl)-3-methyl-2-oxo-2,3-dihydro-1H-imidazo[4,5-c]quinolin-8-yl)phenyl)-4-methylpiperazine-1-carboxamide] | – | 3800 nM | –
18 | COCCn1c(=O)n(C)c2cnc3ccc(-c4ccc(NC(=O)NC5CN(C)C5)cc4)cc3c21 [Ex. 21, 1-(4-(1-(2-Methoxyethyl)-3-methyl-2-oxo-2,3-dihydro-1H-imidazo[4,5-c]quinolin-8-yl)phenyl)-3-(1-methylazetidin-3-yl)urea] | < 1 nM | – | –
19 | COCCn1c(=O)n(C)c2cnc3ccc(-c4ccc(NC(=O)N5CCC(N(C)C)C5)cc4)cc3c21 (stereo not shown) [Ex. 25, 3-(Dimethylamino)-N-(4-(1-(2-methoxyethyl)-3-methyl-2-oxo-2,3-dihydro-1H-imidazo[4,5-c]quinolin-8-yl)phenyl)pyrrolidine-1-carboxamide] | 7 nM | – | –
20 | COCCn1c(=O)n(C)c2cnc3ccc(-c4ccc(NC(=O)N5CC(N(C)C)C5)cc4)cc3c21 [Ex. 26, 3-(Dimethylamino)-N-(4-(1-(2-methoxyethyl)-3-methyl-2-oxo-2,3-dihydro-1H-imidazo[4,5-c]58uinoline-8-yl)phenyl)azetidine-1-carboxamide] | 4 nM | – | –
21 | COCCn1c(=O)n(C)c2cnc3ccc(-c4ccc(NC(=O)NCCN(C)C)cc4F)cc3c21 [Ex. 27, 1-(2-(Dimethylamino)ethyl)-3-(3-fluoro-4-(1-(2-methoxyethyl)-3-methyl-2-oxo-2,3-dihydro-1H-imidazo[4,5-c]quinolin-8-yl)phenyl)urea] | < 1 nM | 4790 nM | 1 nM
22 | COCCn1c(=O)n(C)c2cnc3ccc(-c4ccc(NC(=O)NCCN(C)C)c(F)c4F)cc3c21 [Ex. 46, 1-(2,3-Difluoro-4-(1-(2-methoxyethyl)-3-methyl-2-oxo-2,3-dihydro-1H-imidazo[4,5-c]quinolin-8-yl)phenyl)-3-(2-(dimethylamino)ethyl)urea] | 3 nM | 8940 nM | –
23 | COCCn1c(=O)n(C)c2cnc3ccc(-c4ccc(NC(=O)NCCN(C)C)c(C)c4F)cc3c21 [Ex. 48, 1-(2-(Dimethylamino)ethyl)-3-(3-fluoro-4-(1-(2-methoxyethyl)-3-methyl-2-oxo-2,3-dihydro-1H-imidazo[4,5-c]quinolin-8-yl)-2-methylphenyl)urea] | – | 7950 nM | –
24 | COCCn1c(=O)n(C)c2cnc3ccc(-c4ccc(NC(=O)NCCN5CCC5)cc4)cc3c21 [Ex. 49, 1-(2-(Azetidin-1-yl)ethyl)-3-(4-(1-(2-methoxyethyl)-3-methyl-2-oxo-2,3-dihydro-1H-imidazo[4,5-c]quinolin-8-yl)phenyl)urea] | < 1 nM | – | –
25 | COCCn1c(=O)n(C)c2cnc3ccc(-c4ccc(NC(=O)NCCN5CC(F)C5)cc4)cc3c21 [Ex. 50, 1-(2-(3-Fluoroazetidin-1-yl)ethyl)-3-(4-(1-(2-methoxyethyl)-3-methyl-2-oxo-2,3-dihydro-1H-imidazo[4,5-c]quinolin-8-yl)phenyl)urea] | < 1 nM | 8040 nM | –
